Tests used:
Type in all cases: in vivo, rat
naive rats (Wistar) [1] = assay: Open-field test (locomotor activity and anxiety)
Procedure: Thus, to test state anxiety, several animal models are commonly used and have been validated by numerous studies: • open field test: This consists of forcibly exposing the animal (rat or mouse) to a new environment and observing its behavior. […] Locomotor activity and behavior are then assessed by recording the number of crossings of the grid lines, the frequency of retreats, the number of entries and the time spent in the central squares. This animal model is considered a good model of “normal” anxiety when adapting to a new environment. It has good predictability of human response to treatment (L. Prut, European Journal of Pharmacology 463 (2003) 3-33). The open-field test is also useful, when it is prolonged (behavioral recording time over 2 hours), as it allows monitoring the motor activity of the animals and thus their state of wakefulness, whereas measurements at short times give information on anxiety. • the light-dark box test: another animal model of anxiety is based on the aversive properties of an open-field space and on the comparison of exploratory activities in a lit compartment and in a dark compartment under the influence of anxiolytic substances (M Bourin, European Journal of Pharmacology 463 (2003) 55-65). This paradigm is based on rodents' innate aversion to bright places and on rodents' spontaneous exploratory behavior in response to stressful environments (new environment or light). The test device is divided into two compartments, one is small, dark and safe, the second is large, bright and stressful. This paradigm allows the prediction of anxiolytic or anxiogenic drug-like activities in mice. Passages between each compartment are a cue of exploration activity, while the time spent in each compartment reflects aversion. Anxiolytics, effective in humans, classic (benzodiazepines) as well as more recent anxiolytic compounds (serotonergic drugs or drugs acting on neuropeptide receptors) can be detected by this animal model which has the advantage of being simple and quick to use. • The open-field test with light gradient: the two models described above can be judiciously coupled in order to check the anxiolytic potential of a molecule, by eliminating the “burrow” effect induced by the presence of the dark compartment.
(§1) In the following examples, the effects of memantine, propranolol and fluoroethylnormemantine (FENM, the subject of the present invention) are studied in naive rats (Wistar) subjected to various tests related to depression or anxiety and then compared.
(§2) The test substances are administered to rats intraperitoneally in a volume of 5 ml/kg, 30 minutes before the behavioral tests are performed.
(§3) The injected solutions contain either of the molecules in the form of one of their salts, a hydrochloride (memantine·HCl and FENM·HCl) for the nitrogen derivatives and as such for propranolol, at the concentrations indicated below in a mixture of 95% (NaCl 0.9% ww in water)/5% ethanol. In each experiment, the dose per kilogram is referenced.
In this way, the animals are given a constant volume of solution (to the nearest difference in weight) equal to 5 ml/kg, or 1.5 ml for a 300 g rat.
For each paradigm, and each solution tested, 12 rats are subjected to injection and behavioral testing. The control solution is a saline solution.
• Open-field test: The locomotor activity of the animals and the “normal” anxiety associated with the discovery of an unknown environment are measured in an open field using a video monitoring system for 2 hours, 30 minutes after the injection of the solutions to be tested. The recorded data include, with a reading every 5 minutes, the time spent in the central squares, vertical activity, and the number of displacements.

naive rats (Wistar) [2] = assay: Forced swimming test; conditions: for Rat behavior over the period of time 1 to 6 minutes: frenetic movement / Rat behavior over the period of time 1 to 6 minutes: immobility (ies): second day, 30 min before; for Rat behavior over the period of time 1 to 6 minutes: immobility (ies): in s
Procedure: • the forced swimming test: This test has been used for a number of years with rats or mice to test the activity of antidepressants (F. Borsini, Psychopharmacology (1988) 94:147-160) and consists of placing the animal in a bowl filled with room-temperature water. After 15 minutes (pre-test session), the animal is taken out of the water and dried. Twenty-four hours later, the animal is again exposed to the previous conditions and the time of total immobility for a period of 5 minutes is recorded (test session). The animal is considered immobile when it performs only the movements necessary to keep its head out of the water. This immobility is easier to assess in rats than in mice, which have less explicit movements.
as §1, §2, §3
In the forced swimming test, rats (12 per group) are forced to swim in a tank filled with 23° C. water (10 minutes on the first day to allow for habituation to the medium and 6 minutes on the second day).
The behavior of the rats (stopping swimming, decreasing activity) is quantified by a video monitoring system.
The therapeutic solutions to be tested are administered on the second day 30 minutes before the experiment.

naive rats (Wistar) [3] = assay: Pre-pulse inhibition (PPI) test, sensory filtering; conditions: for Percentage of pre-pulse inhibition, Average: average over first pulse intensities
Excerpt: • Pre-pulse inhibition (PPI) test: One of the major problems of treatments targeting the central nervous system remains the achievement of the desired effect without the appearance of crippling psychological side effects, even exceeding the therapeutic benefit of the treatment. These effects are often significant (the rebound effect of benzodiazepines) or even paradoxical (the anxiety-producing effect of short-term serotonin reuptake inhibitors). In particular, they can induce a destabilization of sensory filtering and generate symptoms similar to schizophrenia.
Pre-impulse inhibition testing is based on the brain's ability to adapt to a moderate-intensity stimulus in order to limit the effect of the same high-intensity stimulus. In this test, the animals are placed in a soundproof cage and subjected either to a sound pulse of 120 decibels (dB) or to a sequence of 2 pulses spaced about 100 milliseconds apart, the second pulse being of fixed intensity of 120 dB and the first of variable intensity between 70 and 85 dB).
In animals with psychotic disorders of a schizophrenic nature, this inhibition is more or less eliminated.
as §1, §2, §3
Pre-impulse inhibition testing is based on the brain's ability to adapt to a moderate-intensity stimulus in order to limit the effect of the same high-intensity stimulus. In this test, the animals (12 per group) are placed in a soundproof cage and subjected either to a sound pulse of 120 decibels (dB) or to a sequence of 2 pulses spaced about 100 milliseconds apart, the second pulse being of a fixed intensity of 120 dB and the first of variable intensity between 70 and 85 dB).

Structure (SMILES): NC12CC3CC(C1)CC(CCF)(C3)C2
- Mean time spent in the central squares per time interval (naive rats (Wistar) [1]; 5 mg/kg i.p., 30 min before test, 0-5 min): 128.8 s
- Vertical activity (naive rats (Wistar) [1]; 5 mg/kg i.p., 0-5 min): 40.67
- Mean time spent in the central squares per time interval (naive rats (Wistar) [1]; 5 mg/kg i.p., 0-10 min): 216.8 s
- Vertical activity (naive rats (Wistar) [1]; 5 mg/kg i.p., 0-10 min): 71.17
- Mean time spent in the central squares per time interval (naive rats (Wistar) [1]; 5 mg/kg i.p., 0-120 min): 1563.6 s
- Number of displacements (naive rats (Wistar) [1]; 5 mg/kg i.p., 0-120 min): 1600
- Vertical activity (naive rats (Wistar) [1]; 5 mg/kg i.p., 0-120 min): 136.00
- Mean time spent in the central squares per time interval (naive rats (Wistar) [1]; 5 mg/kg i.p., 5-10 min): 88.0 s
- Vertical activity (naive rats (Wistar) [1]; 5 mg/kg i.p., 5-10 min): 30.50
- Mean time spent in the central squares per time interval (naive rats (Wistar) [1]; 10 mg/kg i.p., 30 min before test, 0-5 min): 116.8 s
- Vertical activity (naive rats (Wistar) [1]; 10 mg/kg i.p., 0-5 min): 52.33
- Mean time spent in the central squares per time interval (naive rats (Wistar) [1]; 10 mg/kg i.p., 0-10 min): 226.7 s
- Vertical activity (naive rats (Wistar) [1]; 10 mg/kg i.p., 0-10 min): 86.42
- Mean time spent in the central squares per time interval (naive rats (Wistar) [1]; 10 mg/kg i.p., 0-120 min): 1803.8 s
- Number of displacements (naive rats (Wistar) [1]; 10 mg/kg i.p., 0-120 min): 1800
- Vertical activity (naive rats (Wistar) [1]; 10 mg/kg i.p., 0-120 min): 173.75
- Mean time spent in the central squares per time interval (naive rats (Wistar) [1]; 10 mg/kg i.p., 5-10 min): 109.9 s
- Vertical activity (naive rats (Wistar) [1]; 10 mg/kg i.p., 5-10 min): 34.08
- Mean time spent in the central squares per time interval (naive rats (Wistar) [1]; 20 mg/kg i.p., 30 min before test, 0-5 min): 129.8 s
- Vertical activity (naive rats (Wistar) [1]; 20 mg/kg i.p., 0-5 min): 47.33
- Mean time spent in the central squares per time interval (naive rats (Wistar) [1]; 20 mg/kg i.p., 0-10 min): 235.7 s
- Vertical activity (naive rats (Wistar) [1]; 20 mg/kg i.p., 0-10 min): 66.58
- Mean time spent in the central squares per time interval (naive rats (Wistar) [1]; 20 mg/kg i.p., 0-120 min): 1692.8 s
- Number of displacements (naive rats (Wistar) [1]; 20 mg/kg i.p., 0-120 min): 2100
- Vertical activity (naive rats (Wistar) [1]; 20 mg/kg i.p., 0-120 min): 208.92
- Mean time spent in the central squares per time interval (naive rats (Wistar) [1]; 20 mg/kg i.p., 5-10 min): 105.9 s
- Vertical activity (naive rats (Wistar) [1]; 20 mg/kg i.p., 5-10 min): 19.25
- drowsiness effect / overall activity level of the animals (naive rats (Wistar) [1]; open field over 2 hours, FENM even at high doses, memantine 10 mg/kg): does not generate the drowsiness effect
- Rat behavior over the period of time 1 to 6 minutes: frenetic movement (naive rats (Wistar) [2]; 1 mg/kg i.p.): 43.2 s
- Rat behavior over the period of time 1 to 6 minutes: immobility (ies) (naive rats (Wistar) [2]; 1 mg/kg i.p.): 157.8
- Rat behavior over the period of time 1 to 6 minutes: frenetic movement (naive rats (Wistar) [2]; 3 mg/kg i.p.): 47.6 s
- Rat behavior over the period of time 1 to 6 minutes: immobility (ies) (naive rats (Wistar) [2]; 3 mg/kg i.p.): 164.3
- Rat behavior over the period of time 1 to 6 minutes: frenetic movement (naive rats (Wistar) [2]; 10 mg/kg i.p.): 60.6 s
- Rat behavior over the period of time 1 to 6 minutes: immobility (ies) (naive rats (Wistar) [2]; 10 mg/kg i.p.): 140.5
- immobility time compared with control (naive rats (Wistar) [2]; all dose levels, particularly 10 mg/kg, p<0.001): very significant (p<0.001) decrease
- Percentage of pre-pulse inhibition, Average (naive rats (Wistar) [3]; 5 mg/kg i.p.): 42%
- Percentage of pre-pulse inhibition as a function of the intensity of the first pulse (naive rats (Wistar) [3]; 5 mg/kg i.p., first pulse 72 dB): 24%
- Percentage of pre-pulse inhibition as a function of the intensity of the first pulse (naive rats (Wistar) [3]; 5 mg/kg i.p., first pulse 76 dB): 37%
- Percentage of pre-pulse inhibition as a function of the intensity of the first pulse (naive rats (Wistar) [3]; 5 mg/kg i.p., first pulse 80 dB): 47%
- Percentage of pre-pulse inhibition as a function of the intensity of the first pulse (naive rats (Wistar) [3]; 5 mg/kg i.p., first pulse 84 dB): 60%
- Percentage of pre-pulse inhibition, Average (naive rats (Wistar) [3]; 10 mg/kg i.p.): 45%
- Percentage of pre-pulse inhibition as a function of the intensity of the first pulse (naive rats (Wistar) [3]; 10 mg/kg i.p., first pulse 72 dB): 27%
- Percentage of pre-pulse inhibition as a function of the intensity of the first pulse (naive rats (Wistar) [3]; 10 mg/kg i.p., first pulse 76 dB): 39%
- Percentage of pre-pulse inhibition as a function of the intensity of the first pulse (naive rats (Wistar) [3]; 10 mg/kg i.p., first pulse 80 dB): 51%
- Percentage of pre-pulse inhibition as a function of the intensity of the first pulse (naive rats (Wistar) [3]; 10 mg/kg i.p., first pulse 84 dB): 64%
- Percentage of pre-pulse inhibition, Average (naive rats (Wistar) [3]; 20 mg/kg i.p.): 48%
- Percentage of pre-pulse inhibition as a function of the intensity of the first pulse (naive rats (Wistar) [3]; 20 mg/kg i.p., first pulse 72 dB): 31%
- Percentage of pre-pulse inhibition as a function of the intensity of the first pulse (naive rats (Wistar) [3]; 20 mg/kg i.p., first pulse 76 dB): 46%
- Percentage of pre-pulse inhibition as a function of the intensity of the first pulse (naive rats (Wistar) [3]; 20 mg/kg i.p., first pulse 80 dB): 54%
- Percentage of pre-pulse inhibition as a function of the intensity of the first pulse (naive rats (Wistar) [3]; 20 mg/kg i.p., first pulse 84 dB): 62%
- effect on PPI (schizophrenia-inducing effect) (naive rats (Wistar) [3]; memantine 10 mg/kg (p<0.01), FENM even at high dose (20 mg/kg)): induces no effect

— patent US11464751B2, “Use of fluoroethylnormemantine for the prevention and treatment of anxiety” (REST THERAPEUTICS, priority 2017, dated 2022)
